Laboratory results reported in patent US10875837B2, “Inhibitors of the fibroblast growth factor receptor” (BLUEPRINT MEDICINES CORPORATION, priority 2013, dated 2020).

Experiments:
[1] = tested on: pMAPK (Thr202/Tyr204) in MDA-MB453 or DMS 114 cells; test: Detection of pMAPK (Thr202/Tyr204) using Alpha ELISA (pERK alphaLISA); format: cell-based; conditions: 1 hr incubation with compound; cell line not given (MDA-MB453 or DMS 114)
Description: Detection of pMAPK (Thr202/Tyr204) Using Alpha ELISA
MDA-MB453 or DMS 114 cells were plated in 96-well cell culture plates at a density of 1×10^5 cells or 3×10^4 cells, respectively. Cells were allowed to attach, and growth media was replaced with serum free media. Compounds were added at the indicated concentrations. Following 1 hr incubation in the presence of compound, cells were collected. For the DMS 114 cells, 100 ng/mL FGF2 was added for 10 min prior to cell collection. Cell lysates were prepared and processed according to manufacturer instruction (AlphaScreen® SureFire™ Phospho-ERK 1/2 Kit (Perkin Elmer).

wild type FGFR-4 = molecular target: T1, wild type FGFR-4 (Homo sapiens, UniProt P22455); test: FGFR-4 wild type assay at Km (Caliper electrophoretic mobility shift); format: biochemical; conditions: wild type FGFR-4, 400 uM ATP, 25 C, 90 minutes; read-out: INH-FGFR4
T1 construct: purchased Carna Biosciences, Inc
Description: Biochemical Activity Assessment In order to assess the activity of chemical compounds against the relevant kinase of interest, the Caliper LifeSciences electrophoretic mobility shift technology platform is utilized. Fluorescently labeled substrate peptide is incubated in the presence dosed levels of compounds, a set concentration of kinase and of ATP, so that a reflective proportion of the peptide is phosphorylated. At the end of the reaction, the mix of phosphorylated (product) and non-phosphorylated (substrate) peptides are passed through the microfluidic system of the Caliper LabChip® EZ Reader II, under an applied potential difference. The presence of the phosphate group on the product peptide provides a difference in mass and charge between the product peptide and the substrate peptide, resulting in a separation of the substrate and product pools in the sample. As the pools pass the LEDS within the instrument, these pools are detected and resolved as separate peaks. The ratio between these peaks therefore reflects the activity of the chemical matter at that concentration in that well, under those conditions.
FGFR-4 wild type assay at Km: In each well of a 384-well plate, 0.5 ng/ul of wild type FGFR-4 (Carna Biosciences, Inc.) was incubated in a total of 12.5 ul of buffer (100 mM HEPES pH 7.5, 0.015% Brij 35, 10 mM MgCl2, 1 mM DTT) with 1 uM CSKtide (5-FAM-KKKKEEIYFFFG-NH2) and 400 uM ATP at 25 C for 90 minutes in the presence or absence of a dosed concentration series of compound (1% DMSO final concentration). The reaction was stopped by the addition of 70 ul of Stop buffer (100 mM HEPES pH 7.5, 0.015% Brij 35, 35 mM EDTA and 0.2% of Coating Reagent 3 (Caliper Lifesciences)). The plate was then read on a Caliper LabChip® EZ Reader II (protocol settings: −1.9 psi, upstream voltage −700, downstream voltage −3000, post sample sip 35 s).

T1 sequence (P22455 22-802): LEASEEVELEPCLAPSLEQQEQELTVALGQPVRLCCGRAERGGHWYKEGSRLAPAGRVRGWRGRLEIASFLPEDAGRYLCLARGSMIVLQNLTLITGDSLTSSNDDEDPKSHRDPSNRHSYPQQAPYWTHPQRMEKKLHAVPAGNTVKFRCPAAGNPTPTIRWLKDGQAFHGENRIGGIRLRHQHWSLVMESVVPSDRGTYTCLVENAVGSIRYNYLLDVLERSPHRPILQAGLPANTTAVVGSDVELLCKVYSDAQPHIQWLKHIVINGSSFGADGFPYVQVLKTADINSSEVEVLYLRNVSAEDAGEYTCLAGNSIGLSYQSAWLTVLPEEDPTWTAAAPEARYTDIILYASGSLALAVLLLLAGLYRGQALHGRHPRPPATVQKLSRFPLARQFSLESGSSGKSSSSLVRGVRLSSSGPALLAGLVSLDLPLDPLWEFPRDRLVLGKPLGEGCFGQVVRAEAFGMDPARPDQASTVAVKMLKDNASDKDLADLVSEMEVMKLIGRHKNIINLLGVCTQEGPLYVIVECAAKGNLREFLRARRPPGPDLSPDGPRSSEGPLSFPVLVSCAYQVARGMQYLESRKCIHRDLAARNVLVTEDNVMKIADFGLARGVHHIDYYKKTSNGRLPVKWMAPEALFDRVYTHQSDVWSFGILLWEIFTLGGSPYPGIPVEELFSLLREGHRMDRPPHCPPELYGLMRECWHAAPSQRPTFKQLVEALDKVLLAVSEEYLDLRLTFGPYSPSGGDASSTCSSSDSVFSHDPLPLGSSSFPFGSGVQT

SMILES	IC50 [1] [µM]	IC50 (wild type FGFR-4) [µM]
C=CC(=O)N[C@H]1CN(C(=O)C2CC2)C[C@H]1Nc1ncc2cc(-c3c(Cl)c(OC)cc(OC)c3Cl)ccc2n1 [Compound 80]	< 0.01	< 0.01
C=CC(=O)N[C@H]1CN(C(=O)OCC)C[C@H]1Nc1ncc2cc(-c3c(Cl)c(OC)cc(OC)c3Cl)ccc2n1 [Compound 84]	0.01 to 0.1	< 0.01
C=CC(=O)NC1CN(C(=O)CO)CC1Nc1ncc2cc(-c3c(Cl)c(OC)cc(OC)c3Cl)ccc2n1 (centres unmarked) [Compound 75]	0.01 to 0.1	< 0.01
C=CC(=O)N[C@H]1CN(C(=O)COC)C[C@H]1Nc1ncc2cc(-c3c(Cl)c(OC)cc(OC)c3Cl)ccc2n1 [Compound 86]	< 0.01	< 0.01
C=CC(=O)N[C@H]1CCC[C@H]1Nc1ncc2nc(-c3c(Cl)c(OC)cc(OC)c3Cl)c(=O)n(CC)c2n1 [Compound 63]	0.1 to 1	0.01 to 0.1
C=CC(=O)N[C@H]1C[C@@H]2C[C@@H]2[C@H]1Nc1ncc2cc(-c3c(Cl)c(OC)cc(OC)c3Cl)ccc2n1 [Compound 32, N-((1S,2R,3S,5S)-2-((6-(2,6-dichloro-3,5-dimethoxyphenyl)quinazolin-2-yl)amino)bicyclo[3.1.0]hexan-3-yl)acrylamide]	< 0.01	< 0.01
C=CC(=O)N[C@H]1CCOC[C@H]1Nc1cc2c(cn1)cc(-c1c(Cl)c(OC)cc(OC)c1Cl)c(=O)n2C [Compound 64]	< 0.01	< 0.01
C=CC(=O)N[C@H]1CN(C(=O)OC(C)(C)C)C[C@H]1Nc1ncc2cc(-c3c(Cl)c(OC)cc(OC)c3Cl)ccc2n1 (racemic) [Compound 90]	0.1 to 1	0.01 to 0.1
C=CC(=O)N[C@H]1COC[C@H]1Nc1ncc2cc(-c3c(Cl)c(OC)cc(OC)c3Cl)cc(Cl)c2n1 [Compound 54]	< 0.01	< 0.01
C=CC(=O)N[C@H]1CN(C(=O)NCC)C[C@H]1Nc1ncc2cc(-c3c(Cl)c(OC)cc(OC)c3Cl)ccc2n1 [Compound 83, (3S,4R)-3-acrylamido-4-((6-(2,6-dichloro-3,5-dimethoxyphenyl)quinazolin-2-yl)amino)-N-ethylpyrrolidine-1-carboxamide]	< 0.01	< 0.01
C=CC(=O)N[C@H]1CCCC[C@H]1Nc1ncc2cc(-c3c(Cl)c(OC)cc(OC)c3Cl)c(=O)n(CC)c2n1 [Compound 77]	0.01 to 0.1	0.01 to 0.1
C=CC(=O)N[C@H]1CN(C(=O)CN)C[C@H]1Nc1ncc2cc(-c3c(Cl)c(OC)cc(OC)c3Cl)ccc2n1 (racemic) [Compound 74]	0.1 to 1	0.01 to 0.1
C=CC(=O)N[C@H]1CN(C(=O)CO)C[C@H]1Nc1ncc2cc(-c3c(Cl)c(OC)cc(OC)c3Cl)ccc2n1 [Compound 76]	0.01 to 0.1	< 0.01
C=CC(=O)NC1CN(C(=O)COC)CC1Nc1ncc2cc(-c3c(Cl)c(OC)cc(OC)c3Cl)ccc2n1 (centres unmarked) [Compound 85]	0.01 to 0.1	< 0.01
C=CC(=O)N[C@H]1COC[C@H]1Nc1ncc2cc(-c3c(Cl)c(OC)cc(OC)c3Cl)cc(F)c2n1 [Compound 46]	< 0.01	< 0.01
C=CC(=O)N[C@H]1CN(S(=O)(=O)CC)C[C@H]1Nc1ncc2cc(-c3c(Cl)c(OC)cc(OC)c3Cl)ccc2n1 [Compound 89]	0.01 to 0.1	< 0.01
C=CC(=O)NC1CN(C(=O)CN(C)C)CC1Nc1ncc2cc(-c3c(Cl)c(OC)cc(OC)c3Cl)ccc2n1 (centres unmarked) [Compound 88]	0.01 to 0.1	< 0.01
C=CC(=O)N[C@H]1COC[C@H]1Nc1ncc2cc(-c3c(Cl)c(OC)cc(OC)c3Cl)cnc2n1 [Compound 29]	< 0.01	0.01 to 0.1
C=CC(=O)N[C@H]1CCC[C@H]1Nc1ncc2cc(-c3c(Cl)c(OC)cc(OC)c3Cl)cc(Cl)c2n1 [Compound 53]	–	0.01 to 0.1
C#CC(=O)N[C@H]1CCC[C@H]1Nc1ncc2cc(-c3c(F)ccc(OC)c3F)ccc2n1 [Compound 2, N-((1S,2R)-2-((6-(2,6-difluoro-3-methoxyphenyl)quinazolin-2-yl)amino)cyclopentyl)propiolamide]	–	0.01 to 0.1
C#CC(=O)N[C@H]1CCC[C@H]1Nc1ncc2cc(-c3cc(C(=O)NC4CC4)ccc3Cl)ccc2n1 [Compound 16]	–	0.01 to 0.1
C=CC(=O)N[C@H]1COC[C@H]1Nc1ncc2cc(-c3c(Cl)c(OC)cc(OC)c3Cl)c(Cl)cc2n1 [Compound 55]	< 0.01	< 0.01
C=CC(=O)N[C@H]1CN(C(=O)CN2CCCC2)C[C@H]1Nc1ncc2cc(-c3c(Cl)c(OC)cc(OC)c3Cl)ccc2n1 [Compound 91]	0.01 to 0.1	< 0.01
C=CC(=O)N[C@H]1CCC[C@H]1Nc1ncc2cc(-c3c(Cl)c(OC)cc(OC)c3Cl)cc(F)c2n1 [Compound 45]	0.01 to 0.1	0.01 to 0.1
C#CC(=O)N[C@H]1CCC[C@H]1Nc1ncc2cc(-c3cc(C(=O)NCC)ccc3Cl)ccc2n1 [Compound 11]	–	0.01 to 0.1
C#CC(=O)NC1CCC1Nc1ncc2cc(-c3c(Cl)c(OC)cc(OC)c3Cl)ccc2n1 (centres unmarked) [Compound 14]	–	0.01 to 0.1

Other lines, results leading:

IC50 [1] [µM]	IC50 (wild type FGFR-4) [µM]	SMILES
0.01 to 0.1	0.01 to 0.1	C=CC(=O)N[C@H]1CCC[C@H]1Nc1ncc2cc(-c3c(Cl)c(OC)cc(OC)c3Cl)ccc2n1 [Compound 24]
0.01 to 0.1	< 0.01	C=CC(=O)NC1CN(C(C)=O)CC1Nc1ncc2cc(-c3c(Cl)c(OC)cc(OC)c3Cl)ccc2n1 (centres unmarked) [Compound 58]
0.1 to 1	0.01 to 0.1	C=CC(=O)N[C@@H]1COC[C@@H]1Nc1ncc2cc(-c3c(Cl)c(OC)cc(OC)c3Cl)ccc2n1 [Compound 26]
< 0.01	< 0.01	C=CC(=O)N[C@H]1CCOC[C@H]1Nc1ncc2cc(-c3c(Cl)c(OC)cc(OC)c3Cl)cc(F)c2n1 [Compound 52]
0.01 to 0.1	0.01 to 0.1	C=CC(=O)N[C@H]1CCOC[C@H]1Nc1ncc2cc(-c3c(Cl)c(OC)cc(OC)c3Cl)cnc2n1 [Compound 44]
0.01 to 0.1	0.01 to 0.1	C=CC(=O)N[C@H]1CCCC[C@H]1Nc1ncc2cc(-c3c(Cl)c(OC)cc(OC)c3Cl)ccc2n1 [Compound 34, N-((1S,2R)-2-((6-(2,6-dichloro-3,5-dimethoxyphenyl)quinazolin-2-yl)amino)cyclohexyl)acrylamide]
< 0.01	< 0.01	C=CC(=O)N[C@H]1CCOC[C@H]1Nc1ncc2cc(-c3c(Cl)c(OC)cc(OC)c3Cl)c(F)cc2n1 [Compound 51]
0.1 to 1	0.01 to 0.1	C=CC(=O)N[C@H]1COCC[C@H]1Nc1ncc2cc(-c3c(Cl)c(OC)cc(OC)c3Cl)ccc2n1 [Compound 41]
< 0.01	< 0.01	C=CC(=O)N[C@H]1CCOC[C@H]1Nc1ncc2cc(-c3c(Cl)c(OC)cc(OC)c3Cl)ccc2n1 [Compound 40, N-((3S,4S)-3-((6-(2,6-dichloro-3,5-dimethoxyphenyl)quinazolin-2-yl)amino)tetrahydro-2H-pyran-4-yl)acrylamide]
< 0.01	< 0.01	C=CC(=O)N[C@H]1CN(C(C)=O)C[C@H]1Nc1ncc2cc(-c3c(Cl)c(OC)cc(OC)c3Cl)ccc2n1 [Compound 56, N-((3S,4R)-1-acetyl-4-((6-(2,6-dichloro-3,5-dimethoxyphenyl)quinazolin-2-yl)amino)pyrrolidin-3-yl)acrylamide]
–	0.01 to 0.1	C=CC(=O)NC1CNCC1Nc1ncc2cc(-c3c(Cl)c(OC)cc(OC)c3Cl)ccc2n1 (centres unmarked) [Compound 25]
–	> 1	C=CC(=O)N[C@H]1CCCC[C@@H]1Nc1ncc2cc(-c3c(Cl)c(OC)cc(OC)c3Cl)ccc2n1 [Compound 36, N-((1S,2S)-2-((6-(2,6-dichloro-3,5-dimethoxyphenyl)quinazolin-2-yl)amino)cyclohexyl)acrylamide]
–	0.01 to 0.1	C=CC(=O)NC1CCS(=O)(=O)CC1Nc1ncc2cc(-c3c(Cl)c(OC)cc(OC)c3Cl)ccc2n1 (centres unmarked) [Compound 79]
0.01 to 0.1	< 0.01	C=CC(=O)NC1COCC1Nc1ncc2cc(-c3c(Cl)c(OC)cc(OC)c3Cl)ccc2n1 (centres unmarked) [Compound 28]
–	> 1	C=CC(=O)N[C@H]1CC(C)(C)OC[C@H]1Nc1ncc2cc(-c3c(Cl)c(OC)cc(OC)c3Cl)ccc2n1 [Compound 60]
–	0.01 to 0.1	C=CC(=O)N[C@H]1CC(=O)C[C@H]1Nc1ncc2cc(-c3c(Cl)c(OC)cc(OC)c3Cl)ccc2n1 [Compound 33]
